The values below come from EP1087973B1, “IMIDAZOTRIAZOLOPYRIMIDINES USED AS A DRUG HAVING AN ADENOSINE ANTAGONIST ACTIVITY” (Boehringer Ingelheim Pharma KG, priority 1998, dated 1999).

The first assay has as its target T1, human A1 adenosine Receptor (Homo sapiens, UniProt P30542).
T1 sequence (P30542 1-326): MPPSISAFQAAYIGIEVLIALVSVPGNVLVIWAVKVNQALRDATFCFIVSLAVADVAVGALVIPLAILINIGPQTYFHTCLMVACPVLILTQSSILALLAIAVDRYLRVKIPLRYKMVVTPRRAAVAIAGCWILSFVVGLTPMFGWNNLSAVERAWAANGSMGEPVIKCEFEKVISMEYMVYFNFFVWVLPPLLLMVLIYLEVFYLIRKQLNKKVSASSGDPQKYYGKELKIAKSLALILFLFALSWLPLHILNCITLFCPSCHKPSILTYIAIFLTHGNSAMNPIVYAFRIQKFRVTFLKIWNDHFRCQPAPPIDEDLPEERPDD
Briefly: A1 receptor binding, determined in analogy to Ensinger et al. Particulars: KiA1 (human) Rezeptorbindungswerte, Tabelle 2; read-out: KjA1. An excerpt:
Die nachfolgende Tabelle enthält KiA1 (human) Rezeptorbindungswerte.
On to `CCCc1nc2c([nH]1)c(=O)n(CC)c1nc(CCc3ccccc3)nn21` [Beispiel 11, 4-Ethyl-2-(2-phenylethyl)-7-n-propyl-imi-dazo[4.5-e]-s-triazolo[1.5-a]pyrimidin-5-on], for which the Ki was found to be 8.1 nM.

On to `CCn1c(=O)c2[nH]c(C(C)(C)C)nc2n2nc(Cc3ccc(O)cc3)nc12` [Beispiel 12, 7-t-Butyl-4-ethyl-2-(4-hydroxybenzyl)-imi-dazo[4.5-e]-s-triazolo[1.5-a]pyrimidin-5-on], for which the Ki is 6 nM. With `CCn1c(=O)c2[nH]c(C(C)(C)C)nc2n2nc(Cc3ccc(OC)cc3)nc12` [Beispiel 15, 7-t-Butyl-4-ethyl-2-(4-methoxybenzyl)-imi-dazo[4.5-e]-s-triazolo[1.5-a]pyrimidin-5-on], the Ki worked out at 2.1 nM. As for `CCn1c(=O)c2[nH]c(C3CCCC3)nc2n2nc(COc3ccccc3)nc12` [Beispiel 29, 7-Cyclopentyl-4-ethyl-2-phenyloxymethyl-imidazo[4.5-e]-s-triazolo[1.5-a]pyrimidin-5-on], the Ki amounted to 3.6 nM. The same measure, in the same setting: as for `CCn1c(=O)c2[nH]c(C3CCCC3)nc2n2nc(Cn3cccc3)nc12` [Beispiel 35, 7-Cyclopentyl-4-ethyl-2-(N-pyrrolylmethyl)-imidazo[4.5-e]-s-triazolo[1.5-a]pyrimidin-5-on], the figure is 2.6 nM.

The target of a further assay is T2, human A3-adenosine receptor (Homo sapiens, UniProt P0DMS8).
T2 sequence (P0DMS8 1-318): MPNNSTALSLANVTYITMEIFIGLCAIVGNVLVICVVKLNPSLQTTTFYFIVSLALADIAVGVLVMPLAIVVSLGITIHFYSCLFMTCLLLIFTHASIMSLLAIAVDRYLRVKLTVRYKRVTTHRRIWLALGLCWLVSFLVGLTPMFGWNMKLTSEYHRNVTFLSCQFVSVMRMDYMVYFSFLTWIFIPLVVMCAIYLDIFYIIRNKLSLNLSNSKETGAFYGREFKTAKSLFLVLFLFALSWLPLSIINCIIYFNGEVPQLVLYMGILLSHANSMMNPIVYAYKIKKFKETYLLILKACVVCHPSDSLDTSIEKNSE
Briefly: A3 receptor binding, determined in analogy to Salvatore et al. The settings on record: KiA3 (human) Rezeptorbindungswerte, Tabelle 3. An excerpt:
Tabelle 3 enthält KiA3 (human) Rezeptorbindungswerte.
For the molecule `CCCc1nc2c([nH]1)c(=O)n(CCC)c1nc(C3CCCC3)nn21` [Beispiel 2, 2-Cyclopentyl-4,7-di-n-propyl-imidazo[4.5-e]-s-triazolo[1.5-a]pyrimidin-5-on], the Ki is 5.6 nM.

As to `CCCn1c(=O)c2[nH]c(C)nc2n2nc(Cc3ccccc3)nc12` [Beispiel 8, 2-Benzyl-7-methyl-4-n-propyl-imidazo[4.5-e]-s-triazolo[1.5-a]pyrimidin-5-on], the Ki amounted to 0.9 nM. Same read-out and setting: the result for `CCn1c(=O)c2[nH]c(C)nc2n2nc(CCc3ccccc3)nc12` [Beispiel 10, 4-Ethyl-7-methyl-2-(2-phenylethyl)-imi-dazo[4.5-e]-s-triazolo[1.5-a]pyrimidin-5-on] reads 7.2 nM. Still for that read-out and setting: as for `CCCn1c(=O)c2[nH]c(C)nc2n2nc(-c3ccco3)nc12` [Beispiel 36, 2-(2-Furanyl)-7-methyl-4-n-propyl-imi-dazo[4.5-e]-s-triazolo[1.5-a]pyrimidin-5-on], the figure is 2.2 nM; as for `CCCc1nc2c([nH]1)c(=O)n(CCC)c1nc(-c3ccco3)nn21` [Beispiel 37, 2-(2-Furanyl)-4,7-di-n-propyl-imidazo[4.5-e]-s-triazolo[1.5-a]pyrimidin-5-on], 8.3 nM.
